The source of these data is US20240083845A1 (priority 2020, published 2024).

SMILES strings stand for the structures.

The target of this assay is SARS-CoV-2 Mpro (Severe acute respiratory syndrome coronavirus 2, UniProt P0DTD1). Put plainly: SARS-CoV-2 Mpro enzyme assay (FRET). It is filed as biochemical. To be noted: FRET substrate Dabcyl-KTSAVLQSGFRKM-E(Edans)-Amide, 20 nM enzyme, 30 min preincubation at 30° C., mean n=2; read-out: SARS-CoV-2 Mpro enzyme assay pKi (converted).
Take `CCNC(=O)C(=O)C(C[C@@H]1CCNC1=O)NC(=O)[C@H](CC(C)(C)C)NC(=O)/C=C/c1ccc(Cl)cc1F` (stereo partly drawn) [Example 23, (2S)-2-((E)-3-(4-chloro-2-fluorophenyl)acrylamido)-N-(4-(ethylamino)-3,4-dioxo-1-((S)-2-oxopyrrolidin-3-yl)butan-2-yl)-4,4-dimethylpentanamide]: the Ki is 12.6 nM. In the case of `CCNC(=O)C(=O)C(C[C@@H]1CCNC1=O)NC(=O)[C@H](CC1CC1)NC(=O)/C=C/c1ccc(Cl)cc1Cl` (stereo partly drawn) [Example 24, 3-((S)-3-cyclopropyl-2-((E)-3-(2,4-dichlorophenyl)acrylamido)propanamido)-N-ethyl-2-oxo-4-((S)-2-oxopyrrolidin-3-yl)butanamide] it was 12.6 nM; in that of `O=C(/C=C/c1ccc(Cl)cc1Cl)N[C@@H](CC1CC1)C(=O)NC(C[C@@H]1CCNC1=O)C(=O)C(=O)NC1CC1` (stereo partly drawn) [Example 25, N-cyclopropyl-3-((S)-3-cyclopropyl-2-((E)-3-(2,4-dichlorophenyl)acrylamido)propanamido)-2-oxo-4-((S)-2-oxopyrrolidin-3-yl)butanamide], 10 nM; in that of `CCNC(=O)C(=O)C(C[C@@H]1CCNC1=O)NC(=O)[C@H](CC(C)(C)C)NC(=O)/C=C/c1ccc(Cl)cc1Cl` (stereo partly drawn) [Example 26, (2S)-2-((E)-3-(2,4-dichlorophenyl)acrylamido)-N-(4-(ethylamino)-3,4-dioxo-1-((S)-2-oxopyrrolidin-3-yl)butan-2-yl)-4,4-dimethylpentanamide], 10 nM. The value for `CC(C)(C)C[C@H](NC(=O)/C=C/c1ccc(Cl)cc1Cl)C(=O)NC(C[C@@H]1CCNC1=O)C(=O)C(N)=O` (stereo partly drawn) [Example 27, (2S)-N-(4-amino-3,4-dioxo-1-((S)-2-oxopyrrolidin-3-yl)butan-2-yl)-2-((E)-3-(2,4-dichlorophenyl)acrylamido)-4,4-dimethylpentanamide] was 7.94 nM. As to `O=C(/C=C/c1ccc(Cl)cc1F)N[C@@H](CC1CC1)C(=O)NC(C[C@@H]1CCNC1=O)C(=O)C(=O)NC1CC1` (stereo partly drawn) [Example 28, 3-((S)-2-((E)-3-(4-chloro-2-fluorophenyl)acrylamido)-3-cyclopropylpropanamido)-N-cyclopropyl-2-oxo-4-((S)-2-oxopyrrolidin-3-yl)butanamide], the Ki was 15.8 nM. The value for `O=C(N[C@@H](CC1CC1)C(=O)NC(C[C@@H]1CCNC1=O)C(=O)C(=O)NC1CC1)OCc1ccccc1` (stereo partly drawn) [Example 29, benzyl ((2S)-3-cyclopropyl-1-((4-(cyclopropylamino)-3,4-dioxo-1-((S)-2-oxopyrrolidin-3-yl)butan-2-yl)amino)-1-oxopropan-2-yl)carbamate] was 15.8 nM. The value for `O=C(CCc1ccc(Cl)cc1Cl)N[C@@H](CC1CC1)C(=O)NC(C[C@@H]1CCNC1=O)C(=O)C(=O)NC1CC1` (stereo partly drawn) [Example 30, N-cyclopropyl-3-((S)-3-cyclopropyl-2-(3-(2,4-dichlorophenyl)propanamido)propanamido)-2-oxo-4-((S)-2-oxopyrrolidin-3-yl)butanamide] was 20 nM; that for `O=C(/C=C/c1ccc(Cl)cc1F)N[C@@H](CC1CCC1)C(=O)NC(C[C@@H]1CCNC1=O)C(=O)C(=O)NC1CC1` (stereo partly drawn) [Example 31, 3-((S)-2-((E)-3-(4-chloro-2-fluorophenyl)acrylamido)-3-cyclobutylpropanamido)-N-cyclopropyl-2-oxo-4-((S)-2-oxopyrrolidin-3-yl)butanamide] was 25.1 nM.

`CC[C@@H](CC(=O)N[C@@H](CC1CC1)C(=O)NC(C[C@@H]1CCNC1=O)C(=O)C(=O)NC1CC1)c1ccccc1` (stereo partly drawn) [Example 32, (3 S)-N-((2S)-3-cyclopropyl-1-((4-(cyclopropylamino)-3,4-dioxo-1-((S)-2-oxopyrrolidin-3-yl)butan-2-yl)amino)-1-oxopropan-2-yl)-3-phenylpentanamide]: the Ki was 12.6 nM. With `CC[C@H](CC(=O)N[C@@H](CC1CC1)C(=O)NC(C[C@@H]1CCNC1=O)C(=O)C(=O)NC1CC1)c1ccccc1` (stereo partly drawn) [Example 33, (3R)-N-((2S)-3-cyclopropyl-1-((4-(cyclopropylamino)-3,4-dioxo-1-((S)-2-oxopyrrolidin-3-yl)butan-2-yl)amino)-1-oxopropan-2-yl)-3-phenylpentanamide], the Ki was 25.1 nM.
